The results in this text go back to paper PMC6009904, “Carbonic anhydrase inhibitory properties of some uracil derivatives” (Journal of Enzyme Inhibition and Medicinal Chemistry, 2017).

As a reminder, the pKi is the Ki on a negative log10 scale, so that one unit is a factor of ten. A high value points to a small Ki.

pKi: −log10 of the molar value.

One assay has as its target T1, hCA II (Homo sapiens, UniProt P00918).
T1 construct: we have purified CA I and II (hCA I and hCA II) from human erythrocytes; from tissue; host or cells: human erythrocytes (fresh human blood)
Description: hCA II inhibition, esterase assay with 4-nitrophenylacetate as substrate. The class given is biochemical. The conditions noted are these: 4-nitrophenylacetate substrate, mean from at least three determinations, enzyme purified from human erythrocytes. As to the method: (§1) Erythrocytes were purified from fresh human blood obtained from the Blood Centre of the Research Hospital at Atatürk University. The blood samples were centrifuged at 1500 rpm for 15 min and the plasma and buffy coat were removed. The red cells were isolated and washed twice with 0.9% NaCl, and hemolysed with 1.5 volumes of ice-cold water. The ghost and intact cells were removed by centrifugation at 20 000 rpm for 30 min at 4 °C. The pH of the hemolysate was adjusted to 8.7 with solid Tris[18]. Firstly, benzoyl chloride and stirred for four hours at room temperature in CH2Cl2 cellulose. After the spacer arm cellulose added as a benzyl group and finally diazotized sulfanilamide clamped to the para position of benzyl group as ligand. The hemolysate was applied to the prepared cellulose-benzyl-sulfanylamide affinity column equilibrated with 25 mM Tris-HCl/0.1 M Na2SO4 (pH 8.7). The affinity gel was washed with 25 mM Tris-HCl/22 mM Na2SO4 (pH 8.7). The human carbonic anhydrase (hCA I and hCA II) isozymes were eluted with 1 M NaCl/25 mM Na2HPO4 (pH 6.3) and 0.1 M CH3COONa/0.5 M NaClO4 (pH 5.6), respectively. All procedures were performed at 4 °C[16].
(§2) Enzyme activity was determined spectrophotometrically by following the change in absorbance at 348 nm of 4-nitrophenylacetate to 4-nitrophenylate over a period of 3 min at 25 °C[19–21]. The enzymatic reaction contained 1.4 mL 0.05 M Tris-SO4 buffer (pH 7.4), 1 mL 3 mM 4-nitrophenylacetate, 0.5 mL H2O and 0.1 mL enzyme solution, in a total volume of 3.0 mL[22]. Inhibitory effects of compounds 4–12 were compared with phenolic compounds 13–15. Different inhibitor concentrations were used and all compounds were tested in triplicate at each concentration used. Control cuvette activity was acknowledged as 100% in the absence of inhibitor. An Activity% – [Inhibitor] graph was drawn for each inhibitor[22–24]. The curve-fitting algorithm allowed to obtain the IC50 values, working at the lowest concentration of substrate of 0.15 mM, from which KI values were calculated[25]^,[26]. The catalytic activity of these enzymes was calculated from Lineweaver–Burk plots, as reported earlier, and represent the mean from at least three different determinations. The CA I and II isoenzymes used here were purified from human blood as described earlier.

The next assay has as its target T2, hCA I (Homo sapiens, UniProt P00915).
T2 construct: we have purified CA I and II (hCA I and hCA II) from human erythrocytes; from tissue; host or cells: human erythrocytes (fresh human blood)
Briefly: hCA I inhibition, esterase assay with 4-nitrophenylacetate as substrate. Particulars: 4-nitrophenylacetate substrate, mean from at least three determinations, enzyme purified from human erythrocytes. It is filed as biochemical. On the procedure: as §1, §2

T2 sequence (P00915 whole entry): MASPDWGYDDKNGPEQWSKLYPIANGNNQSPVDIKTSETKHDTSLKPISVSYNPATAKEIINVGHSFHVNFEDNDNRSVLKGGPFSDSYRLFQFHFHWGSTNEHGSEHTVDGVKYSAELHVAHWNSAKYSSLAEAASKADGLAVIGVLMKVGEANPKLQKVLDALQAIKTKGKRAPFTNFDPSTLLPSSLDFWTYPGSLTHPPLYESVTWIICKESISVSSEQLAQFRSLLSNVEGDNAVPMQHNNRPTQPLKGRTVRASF

Turning to `Cn1c(N)c(N)c(=O)n(C)c1=O` [5,6-Diamino 1,3-Dimethyluracil (12), 5,6-Diamino 1,3-Dimethyluracil], the results for the pKi at hCA II and on hCA I were 6.63 and 6.99, respectively.

With `Cn1c(N)cc(=O)n(C)c1=O` [6-Amino 1,3-Dimethyluracil (11), 6-Amino 1,3-Dimethyluracil], the results for the pKi at hCA II and at hCA I were 6.77 and 7.07, respectively.

Turning to `O=C(O)c1c[nH]c(=O)[nH]c1=O` [Isoorotic acid (10), isoorotic acid], the pKi at hCA II was 5.84; on hCA I, 6.34.

Regarding `O=C(O)c1cc(=O)[nH]c(=O)[nH]1` [Orotic acid (9), Orotic acid], the pKi on hCA II is 5.77; on hCA I, 6.14.
